Here are results for two compounds from patent US9789149B2, “Vegetation water composition for treatment of inflammatory skin conditions” (CreAgri, Inc., priority 2005, dated 2017).

Molecules are shown by their SMILES.

Data set [1] has as its system low density lipoprotein (LDL) oxidation. To be noted: Visioli and Galli, 1998; cited from earlier work.
Another data set deals with platelet aggregation. To be noted: Petroni et al., 1995; cited from earlier work.
In another data set the test system is 5-lipoxygenase. To be noted: de la Puerta et al., 1999; Kohyama et al., 1997; cited from earlier work.
The test system of another data set is 12-lipoxygenase. The following applies: de la Puerta et al., 1999; Kohyama et al., 1997; cited from earlier work.
The subject of data set [2] is peroxynitrite dependent DNA base modification and tyrosine nitration. To be noted: Deiana et al., 1999; cited from earlier work.
Data set [3] relates to various human cellular systems. To be noted: Manna et al., 2000; cited from earlier work.
For data set [4] the following is noted: humans; Visioli et al., 2000; cited from earlier work.
The next data set concerns erythema nodosum. The data set is described as follows: Example 1: patient with erythema nodosum treated with vegetation water composition tablets. Type of data set: in vivo, human. To be noted: 5 mg predonine for nearly 2.3 years. As to the method: In studies conducted in support of the invention, compositions comprised of the vegetation water composition were prepared and administered to test subjects, as set forth in Examples 1-6. Briefly, the pitted pulp of olives was masticated and pressed to produce a liquid-phase mixture and solid by-products. The solid by-products were separated and removed from the liquid-phase mixture by filtration and centrifugation. The liquid-phase mixture was allowed to rest to allow the oil and aqueous fractions to segregate. The aqueous phase was decanted and acidified with citric acid to adjust the pH between 2 and 4. The acidified aqueous fraction was concentrated by distillation under vacuum and dried by spray drying or oven drying under vacuum to obtain a powder, which was used to prepare the tablets as used in Examples 1-6. Each tablet contained 90 mg of olive pulp solids, 5.4 mg of total polyphenols, and ˜2.5 mg of hydroxytyrosol.
In another embodiment, the compositions of the invention are suitable for treating erythema nodosum. Erythema nodosum is an inflammatory condition characterized by tender, red bumps, and is usually found on the shins, but may also occur on other areas of the body such as the buttocks, calves, ankles, thighs, and upper extremities. Quite often, erythema nodosum is not a separate disease, but, rather, a sign of some other disease, or of sensitivity to a drug. […]

With `OCCc1ccc(O)c(O)c1` [hydroxytyrosol, 3,4-dihydroxyphenethyl alcohol], the LDL oxidation entry in data set [1] was “prevents”. For the same compound, the platelet aggregation result in the data set on platelet aggregation is “prevents”. Further, in the data set on 5-lipoxygenase, the “inhibition of 5-lipoxygenase” value was “inhibits”. For the same compound, the “inhibition of 12-lipoxygenase” value in the data set on 12-lipoxygenase is “inhibits”. Moreover, the “peroxynitrite dependent DNA base modification and tyrosine nitration” value in data set [2] is listed as “inhibitory effect”. For the same compound, the “cytotoxicity induced by reactive oxygen species” value in data set [3] was “counteracts”. Besides, the absorption following ingestion result in data set [4] is “dose-dependently absorbed”.

With `C[C@]12C=CC(=O)C=C1CC[C@@H]1[C@@H]2[C@@H](O)C[C@@]2(C)[C@H]1CC[C@]2(O)C(=O)CO` [predonine], in the data set on erythema nodosum, the “erythema nodosum lesions, prior treatment” value is given as “little resolution”.
